Legend:
[1] = system: human keratinocytes (HaCaT cells); test: Cell motility, in vitro wound healing assay; details: compared to no gel
human dermal fibroblasts = test: Cell motility, in vitro wound healing assay; details: for movement of fibroblasts: in vitro wound healing assay, compared to no gel

Compound | movement of keratinocytes [1] | movement of fibroblasts (human dermal fibroblasts) | also measured
COC(=O)C(CCCCN=C=O)N=C=O (centres unmarked) [LDI, Lysine diisocyanate methyl ester] | limited cell movement | limited cell movement | –
OC[C@H]1O[C@@H](O[C@H]2[C@H](O)[C@@H](O)C(O)O[C@@H]2CO)[C@H](O)[C@@H](O)[C@H]1O (some centres unmarked) [lactose] | limited cell movement | limited cell movement | –
O=[N+]([O-])[O-].[Ag+] [silver nitrate] | – | – | dead cells (human fibroblasts; human fibroblasts, 3 μg/ml of silver nitrate in medium, or polymer cured with 3 μg/ml silver): 10%
[Ag] [silver] | – | – | impact on cell migration or proliferation (human dermal fibroblasts; silver per se): no adverse impact; concentrations of silver preferred for cell proliferation (human fibroblasts): lower than 15 μg/ml; fibroblasts proliferation (human fibroblasts): greatly inhibited
